From ChEMBL document CHEMBL1131425 (J Med Chem, 1998) come the findings set out here.

The structures appear in SMILES notation.

Assay [1] deals with D(2) dopamine receptor (Rattus norvegicus, UniProt P61169). The experiment in a line: Binding affinity against rat Dopamine receptor D2.
Assay [2] deals with T1, 5-hydroxytryptamine receptor 1A (Rattus norvegicus, UniProt P19327).
T1 sequence (P19327 whole entry): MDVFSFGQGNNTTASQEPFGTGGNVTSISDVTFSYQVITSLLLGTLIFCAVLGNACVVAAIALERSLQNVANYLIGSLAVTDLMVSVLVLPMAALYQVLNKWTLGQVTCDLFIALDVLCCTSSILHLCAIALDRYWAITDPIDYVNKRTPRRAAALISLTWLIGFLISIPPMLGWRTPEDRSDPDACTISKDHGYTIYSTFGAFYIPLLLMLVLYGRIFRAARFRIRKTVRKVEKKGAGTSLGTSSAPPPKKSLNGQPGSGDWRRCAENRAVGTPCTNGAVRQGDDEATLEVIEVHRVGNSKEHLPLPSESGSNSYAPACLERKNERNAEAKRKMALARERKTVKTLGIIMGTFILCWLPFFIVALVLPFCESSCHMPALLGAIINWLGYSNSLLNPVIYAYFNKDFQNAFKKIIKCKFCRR
In words: Binding affinity against rat 5-hydroxytryptamine 1A receptor in CHO cells. It is filed as cell-based.

Assay [3] concerns the target T2, 5-hydroxytryptamine receptor 2C (Rattus norvegicus, UniProt P08909).
T2 sequence (P08909 whole entry): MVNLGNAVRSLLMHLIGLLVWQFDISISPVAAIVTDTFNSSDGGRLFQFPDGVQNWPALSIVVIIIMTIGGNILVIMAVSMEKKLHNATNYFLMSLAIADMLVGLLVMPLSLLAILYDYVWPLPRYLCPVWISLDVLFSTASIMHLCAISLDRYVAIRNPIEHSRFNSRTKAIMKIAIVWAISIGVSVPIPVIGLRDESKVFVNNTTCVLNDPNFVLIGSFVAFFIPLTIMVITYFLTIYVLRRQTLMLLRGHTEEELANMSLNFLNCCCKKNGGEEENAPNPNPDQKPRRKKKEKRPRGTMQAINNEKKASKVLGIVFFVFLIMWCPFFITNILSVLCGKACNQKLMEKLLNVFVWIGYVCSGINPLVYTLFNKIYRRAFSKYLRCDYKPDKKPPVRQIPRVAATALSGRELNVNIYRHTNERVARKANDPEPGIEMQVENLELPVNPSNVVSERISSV
In words: Binding affinity against rat 5-hydroxytryptamine 2C receptor in A-9 cells. Type of assay: cell-based.

In assay [4] the target is 5-hydroxytryptamine receptor 2A (Rattus norvegicus, UniProt P14842). In words: Binding affinity against rat 5-hydroxytryptamine 2A receptor in NIH3T3 cells. Type of assay: cell-based.
5-hydroxytryptamine receptor 2A, sequence (P14842 whole entry): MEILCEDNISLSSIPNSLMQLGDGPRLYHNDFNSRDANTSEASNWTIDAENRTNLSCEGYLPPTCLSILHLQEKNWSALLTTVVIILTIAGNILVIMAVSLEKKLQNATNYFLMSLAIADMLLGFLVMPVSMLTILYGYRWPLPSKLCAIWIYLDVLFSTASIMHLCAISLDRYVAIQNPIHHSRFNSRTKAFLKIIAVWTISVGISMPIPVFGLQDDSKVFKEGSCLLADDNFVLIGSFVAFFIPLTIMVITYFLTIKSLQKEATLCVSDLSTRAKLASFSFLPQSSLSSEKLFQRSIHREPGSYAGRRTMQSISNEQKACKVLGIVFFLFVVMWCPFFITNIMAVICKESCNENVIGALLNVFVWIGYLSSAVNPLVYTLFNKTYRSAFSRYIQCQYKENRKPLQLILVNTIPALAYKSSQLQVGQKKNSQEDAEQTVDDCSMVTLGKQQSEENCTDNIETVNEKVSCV

D(2) dopamine receptor, sequence (P61169 whole entry): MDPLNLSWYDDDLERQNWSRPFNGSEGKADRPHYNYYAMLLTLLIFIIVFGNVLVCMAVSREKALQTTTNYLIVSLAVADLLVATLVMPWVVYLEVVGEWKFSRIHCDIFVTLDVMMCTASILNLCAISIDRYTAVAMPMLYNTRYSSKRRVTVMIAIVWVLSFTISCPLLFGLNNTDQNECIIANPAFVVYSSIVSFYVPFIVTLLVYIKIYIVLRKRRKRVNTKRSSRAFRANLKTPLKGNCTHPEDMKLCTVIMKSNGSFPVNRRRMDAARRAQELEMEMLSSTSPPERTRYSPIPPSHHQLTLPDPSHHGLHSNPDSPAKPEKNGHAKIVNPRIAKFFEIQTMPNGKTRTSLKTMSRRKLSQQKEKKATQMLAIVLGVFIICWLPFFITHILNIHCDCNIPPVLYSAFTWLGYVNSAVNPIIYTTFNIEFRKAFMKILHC

For `CCCN1CN(C)C2(CCN(CCCC(=O)c3ccc(F)cc3)CC2)C1=O`, the inhibition constant Ki in assay [1] is 130 nM; in assay [2] it was over 10000 nM; in assay [3], over 10000 nM; in assay [4], 20 nM.

In the case of `CCCCN1CN(C)C2(CCN(CCCC(=O)c3ccc(F)cc3)CC2)C1=O`, the inhibition constant (Ki) in assay [1] is 13 nM; in assay [2], over 10000 nM; in assay [3], over 10000 nM; in assay [4], 19 nM.

Consider `CN1CNC(=O)C12CCN(CCCOc1ccc(F)cc1)CC2`, for which the values for the Ki in assay [1], in assay [3] and in assay [4] were 734 nM, over 10000 nM and 35 nM, respectively.

As for `CN1CN(C)C2(CCN(CCCC(=O)c3ccc(F)cc3)CC2)C1=O`, the Ki in assay [1] is 300 nM; in assay [2] it was over 10000 nM; in assay [3] it was over 10000 nM; in assay [4] it was 45 nM.

On to `CNC1(C(N)=O)CCN(CCCC(=O)c2ccc(F)cc2)CC1`, for which the Ki in assay [2] was over 10000 nM; in assay [3], 4480 nM; in assay [4], 130 nM.

With `CC(C)N1CN(C)C2(CCN(CCCC(=O)c3ccc(F)cc3)CC2)C1=O`, the Ki in assay [1] was 46 nM; in assay [2], 6300 nM; in assay [3], over 10000 nM; in assay [4], 7 nM.

Take `CN1CN(Cc2ccccc2)C(=O)C12CCN(CCCC(=O)c1ccc(F)cc1)CC2`: the inhibition constant Ki in assay [2] worked out at 265 nM; in assay [3], 1400 nM; in assay [4] it was 22 nM.

Turning to `CCCN1CN(C)C2(CCN(CCCOc3ccc(F)cc3)CC2)C1=O`, the inhibition constant Ki in assay [1] is 230 nM; in assay [2] it was over 10000 nM; in assay [3] it was over 10000 nM; in assay [4], 19 nM.

Take `CC(C)NC1(C(N)=O)CCN(CCCC(=O)c2ccc(F)cc2)CC1`: the inhibition constant Ki in assay [1] is 400 nM; in assay [2], over 10000 nM; in assay [3], 426 nM; in assay [4], 14 nM.

In the case of `NC(=O)C1(N)CCN(CCCC(=O)c2ccc(F)cc2)CC1`, the inhibition constant (Ki) in assay [3] is over 10000 nM; in assay [4], 420 nM.

Regarding `O=C(CCCN1CCC2(CC1)C(=O)NCN2c1ccccc1)c1ccc(F)cc1` [SPIPERONE], the affinity in assay [2] corresponds to a Ki of 58 nM.

In the case of `NC(=O)C1(NC2CCCCC2)CCN(CCCC(=O)c2ccc(F)cc2)CC1`, the inhibitory constant (Ki) in assay [1] was 43 nM; in assay [2] it was 1610 nM; in assay [3] it was 270 nM; in assay [4], 6 nM.

With `CCN1CNC(=O)C12CCN(CCCC(=O)c1ccc(F)cc1)CC2`, the inhibition constant (Ki) was 170 nM in assay [1], 7960 nM in assay [2], over 10000 nM in assay [3] and 170 nM in assay [4].

On to `CCN1CN(C)C2(CCN(CCCC(=O)c3ccc(F)cc3)CC2)C1=O`, for which the Ki in assay [2] is over 10000 nM; in assay [3], over 10000 nM; in assay [4], 21 nM.

As for `CN1CNC(=O)C12CCN(CCCC(=O)c1ccc(F)cc1)CC2`, the Ki in assay [1] was 220 nM; in assay [2], over 10000 nM; in assay [3] it was over 10000 nM; in assay [4], 23 nM.

With `CC(C)N1CNC(=O)C12CCN(CCCC(=O)c1ccc(F)cc1)CC2`, the inhibitory constant (Ki) in assay [1] is 400 nM; in assay [2] it was 2340 nM; in assay [3], over 10000 nM; in assay [4] it was 38 nM.

Take `O=C(CCCN1CCC2(CC1)NCNC2=O)c1ccc(F)cc1`: the Ki was over 10000 nM in assay [2], over 10000 nM in assay [3] and 5600 nM in assay [4].

`O=C(CCCN1CCC2(CC1)C(=O)NCN2C1CCCCC1)c1ccc(F)cc1`: the figures for the Ki in assay [1], in assay [3] and in assay [4] were 0.7 nM, 677 nM and 0.7 nM, respectively.

The term Ki denotes a measure of affinity in units of concentration, obtained from inhibition or displacement.
